Experimental findings from ChEMBL document CHEMBL4373665, “Discovery of new non-acidic lonazolac analogues with COX-2 selectivity as potent anti-inflammatory agents” (Medchemcomm, 2019) are described below.

Data set [1] deals with Rattus norvegicus. The experiment in a line: Anti-inflammatory activity in albino rat model of carrageenan-induced paw edema assessed as inhibition of carrageenan-induced paw edema at 100 mg/kg, po administered as single dose prior to carrageenan challenge measured after 3 hrs relative to control. It counts as functional. For orientation: Carrageenan injected into the paw causes an acute inflammation.

Data set [2] is filed under the species Homo sapiens. The experiment in a line: Selectivity index, ratio of IC50 for human recombinant COX1 to IC50 for human recombinant COX2 using arachidonic acid as substrate.
Data set [3] in a line: Hepatotoxicity in rat assessed as effect on central veins in liver at 50 mg/kg by hematoxylin and eosin staining based assay. The conditions noted are these: in vivo. It counts as toxicity, organism-based.
The nature of data set [4]: Ulcerogenic activity in rat assessed as effect on parietal cells at 50 mg/kg by hematoxylin and eosin staining based assay. It counts as toxicity, organism-based. The conditions noted are these: in vivo.
Data set [5] deals with T1, Prostaglandin G/H synthase 2 (Homo sapiens, UniProt P35354).
T1 sequence (P35354 whole entry): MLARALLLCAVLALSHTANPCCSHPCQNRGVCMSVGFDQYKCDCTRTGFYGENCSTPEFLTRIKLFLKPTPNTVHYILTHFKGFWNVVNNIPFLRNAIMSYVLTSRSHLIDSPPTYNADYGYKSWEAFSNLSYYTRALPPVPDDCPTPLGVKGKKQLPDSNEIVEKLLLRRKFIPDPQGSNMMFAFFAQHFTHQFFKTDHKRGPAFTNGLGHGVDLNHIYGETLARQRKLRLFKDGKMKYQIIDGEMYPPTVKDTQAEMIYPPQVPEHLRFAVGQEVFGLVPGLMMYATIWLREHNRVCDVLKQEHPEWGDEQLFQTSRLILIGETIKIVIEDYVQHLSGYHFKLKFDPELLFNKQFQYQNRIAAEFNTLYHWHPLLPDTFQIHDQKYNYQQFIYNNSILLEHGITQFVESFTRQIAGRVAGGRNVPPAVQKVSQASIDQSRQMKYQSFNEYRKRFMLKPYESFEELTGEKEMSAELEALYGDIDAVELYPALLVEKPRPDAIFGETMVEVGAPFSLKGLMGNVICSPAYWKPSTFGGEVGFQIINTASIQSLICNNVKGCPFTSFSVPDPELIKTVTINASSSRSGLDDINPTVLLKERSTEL
The data set can be described thus: Inhibition of human recombinant COX2 assessed as decrease in prostaglandin production using arachidonic acid as substrate pretreated for 15 mins followed by substrate addition and measured after 2 mins by enzyme immunoassay.

Data set [6] can be described thus: Ulcerogenic activity in rat assessed as average number of ulcers formed at 50 mg/kg, sc qd for 4 days post 18 hrs fasting measured after 4 days. It counts as toxicity, organism-based. The conditions noted are these: in vivo, 96 h.
Data set [7] is described as follows: Nephrotoxicity in rat assessed as effect on proximal tubule at 50 mg/kg by hematoxylin and eosin staining based assay. The conditions noted are these: in vivo. It counts as toxicity, organism-based.
The test system of data set [8] is Rattus norvegicus. The experiment in a line: Anti-inflammatory activity in albino rat model of carrageenan-induced paw edema assessed as inhibition of carrageenan-induced paw edema at 100 mg/kg, po administered as single dose prior to carrageenan challenge measured after 8 hrs relative to control. It counts as functional.
Data set [9] in a line: Nephrotoxicity in rat assessed as effect on glomeruli at 50 mg/kg surrounded by Bowmann's capsule by hematoxylin and eosin staining based assay. It counts as toxicity, organism-based. The conditions noted are these: in vivo.
Data set [10] is described as follows: Hepatotoxicity in rat assessed as effect on hepatocytes in periportal area at 50 mg/kg by hematoxylin and eosin staining based assay. It counts as toxicity, organism-based. The conditions noted are these: in vivo.
Data set [11] in a line: Ulcerogenic activity in rat assessed as incidence of gastric ulceration at 50 mg/kg, sc qd for 4 days post 18 hrs fasting measured after 4 days relative to control. It counts as toxicity, organism-based. The conditions noted are these: in vivo, 96 h.
The nature of data set [12]: Ulcerogenic activity in rat assessed as average severity of ulcers formed at 50 mg/kg, sc qd for 4 days post 18 hrs fasting measured after 4 days. It counts as toxicity, organism-based. The conditions noted are these: in vivo, 96 h.
Data set [13] is described as follows: Ulcerogenic activity in rat assessed as effect on gastric mucosa at 50 mg/kg by hematoxylin and eosin staining based assay. It counts as toxicity, organism-based. The conditions noted are these: in vivo.
Data set [14] is described as follows: Ulcerogenic activity in rat assessed as effect on gastric submucosa at 50 mg/kg by hematoxylin and eosin staining based assay. It counts as toxicity, organism-based. The conditions noted are these: in vivo.
Data set [15] is described as follows: Ulcerogenic activity in rat assessed as effect on mucosal blood vessel at 50 mg/kg by hematoxylin and eosin staining based assay. It counts as toxicity, organism-based. The conditions noted are these: in vivo.
Data set [16] relates to Rattus norvegicus. The data set can be described thus: Anti-inflammatory activity in albino rat model of carrageenan-induced paw edema assessed as inhibition of carrageenan-induced paw edema at 100 mg/kg, po administered as single dose prior to carrageenan challenge measured after 1 hr relative to control. It counts as functional.
Data set [17] in a line: Hepatotoxicity in rat assessed as effect on bile ducts at 50 mg/kg by hematoxylin and eosin staining based assay. It counts as toxicity, organism-based. The conditions noted are these: in vivo.
A short description of data set [18]: Ulcerogenic activity in rat assessed as ulcer index at 50 mg/kg, sc qd for 4 days post 18 hrs fasting measured after 4 days. The conditions noted are these: in vivo, 96 h. It counts as toxicity, organism-based.
Data set [19] concerns Rattus norvegicus. The experiment in a line: Anti-inflammatory activity in albino rat model of carrageenan-induced paw edema assessed as inhibition of carrageenan-induced paw edema at 100 mg/kg, po administered as single dose prior to carrageenan challenge measured after 4 hrs relative to control. It counts as functional.
Data set [20] in a line: Hepatotoxicity in rat assessed as effect on portal veins at 50 mg/kg by hematoxylin and eosin staining based assay. It counts as toxicity, organism-based. The conditions noted are these: in vivo.
Data set [21] is described as follows: Nephrotoxicity in rat assessed as effect on distal tubule at 50 mg/kg by hematoxylin and eosin staining based assay. It counts as toxicity, organism-based. The conditions noted are these: in vivo.
Data set [22] deals with Prostaglandin G/H synthase 1 (Homo sapiens, UniProt P23219). The data set can be described thus: Inhibition of human recombinant COX1 assessed as decrease in prostaglandin production using arachidonic acid as substrate pretreated for 15 mins followed by substrate addition and measured after 2 mins by enzyme immunoassay. It counts as single protein.
Prostaglandin G/H synthase 1, sequence (P23219 whole entry): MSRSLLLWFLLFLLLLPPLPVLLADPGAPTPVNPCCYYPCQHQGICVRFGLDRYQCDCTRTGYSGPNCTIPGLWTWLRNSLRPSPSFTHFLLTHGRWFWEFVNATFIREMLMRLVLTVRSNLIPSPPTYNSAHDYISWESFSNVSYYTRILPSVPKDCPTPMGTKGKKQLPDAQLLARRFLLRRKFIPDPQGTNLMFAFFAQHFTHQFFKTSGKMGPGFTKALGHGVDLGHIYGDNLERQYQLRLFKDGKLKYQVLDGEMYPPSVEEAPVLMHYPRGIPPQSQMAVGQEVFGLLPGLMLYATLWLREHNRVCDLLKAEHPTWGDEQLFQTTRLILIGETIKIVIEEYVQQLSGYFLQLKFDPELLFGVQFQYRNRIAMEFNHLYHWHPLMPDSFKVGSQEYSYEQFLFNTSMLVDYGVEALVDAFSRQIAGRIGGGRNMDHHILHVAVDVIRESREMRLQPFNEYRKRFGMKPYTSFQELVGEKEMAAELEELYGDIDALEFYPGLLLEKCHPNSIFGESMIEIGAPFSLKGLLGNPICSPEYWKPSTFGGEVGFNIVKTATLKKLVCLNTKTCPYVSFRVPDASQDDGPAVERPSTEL
Data set [23] concerns Rattus norvegicus. The data set can be described thus: Anti-inflammatory activity in albino rat model of carrageenan-induced paw edema assessed as inhibition of carrageenan-induced paw edema at 100 mg/kg, po administered as single dose prior to carrageenan challenge measured after 12 hrs relative to control. It counts as functional.

Take `S=c1nc(-c2ccc(Cl)cc2)cc(-c2cn(-c3ccccc3)nc2-c2ccc(OCc3ccccc3)cc2)[nH]1`: the inhibition in vivo at 100 mg/kg in data set [1] was determined as 54.4%; in data set [8] it was 24.7%; in [16], 42.2%; in [19] it was 41.8%; in data set [23], 15.5%. Besides, in [2], the Ratio IC50 was 6.54. Moreover, the Activity entry is recorded as “Toxic” in data set [3]; “Toxic” in data set [4]; 1.2 in data set [6]; “Toxic” in data set [7]; “Toxic” in [9]; “Toxic” in data set [10]. For the same compound, the Activity in data set [11] is on record as 4%; in data set [12], 1.2; in data set [13], “Toxic”; in data set [14], “Toxic”; in data set [15] it was “Toxic”; in [17], “Toxic”. In addition, the Activity result in data set [20] and in data set [21] was “Toxic” throughout. Also, the IC50 is 1.1 µM in [5] and 7.2 µM in data set [22]. In data set [18], the UI stood at 6.4.
On to `CC(=O)n1nc(-c2ccccc2)cc1-c1cn(-c2ccccc2)nc1-c1ccc(OCc2ccccc2)cc1`, for which the inhibition in vivo at 100 mg/kg in [1] was 64.6%; in data set [8], 55.2%; in [16], 78.3%; in [19] it was 59.8%; in [23], 57.7%. Besides, the Ratio IC50 in [2] is 6.74. Further, the Activity entry is listed as “Toxic” in data set [3]; “Toxic” in data set [4]; 0.8 in data set [6]; “Toxic” in [7]; “Toxic” in [9]; “Toxic” in data set [10]. For the same compound, the Activity in data set [11] is listed as 4%; in data set [12], 1.2; in data set [13] it was “Toxic”; in data set [14] it was “Toxic”; in data set [15], “Toxic”; in data set [17] it was “Toxic”. Moreover, the Activity entry in data set [20] and in data set [21] was “Toxic” each time. Besides, the IC50 was 1.93 µM in data set [5] and 13 µM in [22]. Also, the UI in data set [18] was 6.
Turning to `O=C(/C=C/c1cn(-c2ccccc2)nc1-c1ccc(OCc2ccccc2)cc1)c1ccccc1`, the inhibition in vivo at 100 mg/kg is 58.2% in [1]; 23.8% in [8]; 81.7% in data set [16]; 51.2% in [19]; 32.5% in data set [23]. In addition, the Ratio IC50 in data set [2] came out at 8.22. Also, the Activity entry in data set [3] is “Non-Toxic”; in data set [4], “Non-Toxic”; in [6], 0.4; in data set [7] it was “Non-Toxic”; in data set [9], “Non-Toxic”; in data set [10] it was “Non-Toxic”. Moreover, the Activity is listed as 2% in [11]; 0.4 in [12]; “Non-Toxic” in data set [13]; “Non-Toxic” in data set [14]; “Non-Toxic” in data set [15]; “Non-Toxic” in data set [17]. In addition, the Activity result in data set [20] and in [21] was “Non-Toxic” each time. Further, the IC50 in [5] was determined as 1.88 µM; in data set [22], 15.5 µM. In addition, in data set [18], the UI was determined as 2.8.
For the compound `O=C(/C=C/c1cn(-c2ccccc2)nc1-c1ccc(OCc2ccccc2)cc1)c1ccc(Cl)cc1`, the inhibition in vivo at 100 mg/kg was 77.1% in data set [1]; 48.6% in [8]; 89.7% in data set [16]; 69.9% in [19]; 41.4% in data set [23]. In data set [2], the Ratio IC50 turned out to be 9.32. Moreover, the Activity entry in data set [3] is “Non-Toxic”; in data set [4], “Non-Toxic”; in data set [6], 0.2; in [7] it was “Non-Toxic”; in data set [9], “Non-Toxic”; in [10], “Non-Toxic”. In addition, the Activity in data set [11] was 2%; in [12] it was 0.2; in data set [13], “Non-Toxic”; in data set [14], “Non-Toxic”; in data set [15], “Non-Toxic”; in data set [17], “Non-Toxic”. The Activity entry in [20] and in data set [21] was “Non-Toxic” throughout. For the same compound, the 50% inhibitory concentration (IC50) in data set [5] was 0.6 µM; in data set [22] it was 5.59 µM. The UI in data set [18] was 2.4.
Take `Cc1ccc(-c2cc(C(F)(F)F)nn2-c2ccc(S(N)(=O)=O)cc2)cc1` [CELECOXIB]: the inhibition in vivo at 100 mg/kg in [1] is 58.5%; in data set [8], 44.9%; in data set [16], 56.1%; in data set [19], 48.1%; in data set [23] it was 34.6%. Also, the Activity result is listed as “Toxic” in [3]; “Toxic” in data set [4]; 0.6 in data set [6]; “Toxic” in [7]; “Toxic” in data set [9]; “Toxic” in data set [10]. The Activity is 2% in data set [11]; 0.6 in data set [12]; “Toxic” in data set [13]; “Toxic” in [14]; “Toxic” in data set [15]; “Toxic” in data set [17]. Besides, the Activity entry in [20] and in data set [21] was “Toxic” in each case. Also, the UI in data set [18] was 3.2.
As to `COc1ccc2c(c1)c(CC(=O)O)c(C)n2C(=O)c1ccc(Cl)cc1` [INDOMETHACIN], the inhibition in vivo at 100 mg/kg was determined as 79.8% in data set [1]; 62.5% in data set [8]; 80.2% in [16]; 65.2% in data set [19]; 55.6% in data set [23]. Further, the Activity result in [3] is “Toxic”; in data set [4], “Toxic”; in data set [6], 5; in data set [7] it was “Toxic”; in [9], “Toxic”; in data set [10], “Toxic”. The Activity is 10% in data set [11]; 2.6 in data set [12]; “Toxic” in data set [13]; “Toxic” in data set [14]; “Toxic” in data set [15]; “Toxic” in data set [17]. In addition, the Activity entry in data set [20] and in data set [21] was “Toxic” each time. The UI in data set [18] came out at 17.6.

The inhibition in vivo is the percentage by which the read-out fell short of the control. Broadly, the IC50 is the concentration that gives 50% inhibition.
